The experiment concerns SW982. The experiment can be described thus: relative viability vs DMSO control (72 h) (fraction); higher = more viable cells. The method, boiled down: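 A 5 µM positive control and 0.1% DMSO vehicle ran alongside sarcoma cell lines seeded in 384-well plates to reach 80–90% confluence. Serially diluted compound, 2.5 µl from source plates of 10 mM to 0.0002 mM, was added after 24 h, and the plates were held 72 h at 37 °C, 5% CO2. Relative viability was worked out from ATPLite readings as percent growth averaged over up to triplicate wells. The values were rescaled so that 1 is full and 0 is none.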

± gives the standard deviation of the averaged measurements.

For `Nc1cc(C(F)(F)F)c(-c2cc(N3CCOCC3)nc(N3CCOCC3)n2)cn1` [Buparlisib], the relative viability is, setting by setting: (0.00017 µM) 1 ± 0.025; (0.00051 µM) 1 ± 0.033; (0.00152 µM) 1.04 ± 0.031; (0.00457 µM) 1.03 ± 0.049; (0.01372 µM) 1.04 ± 0.011; (0.04115 µM) 1.02 ± 0.041. This compound displayed a relative viability (0.1235 µM) of 0.983 ± 0.035; a relative viability (0.3704 µM) of 0.86 ± 0.02; a relative viability (1.111 µM) of 0.405 ± 0.033; a relative viability (3.333 µM) of 0.146 ± 0.0066; a relative viability (10 µM) of 0.0979 ± 0.0037.
In turn, `Cn1cc(-c2cc3c(N4CCN(c5ncc([C@@](C)(N)c6ccc(F)cc6)cn5)CC4)ncnn3c2)cn1` [Avapritinib] displayed a relative viability (0.00017 µM) of 0.99 ± 0.026; a relative viability (0.00051 µM) of 0.956 ± 0.05; a relative viability (0.00152 µM) of 0.957 ± 0.093; a relative viability (0.00457 µM) of 0.93 ± 0.07; a relative viability (0.01372 µM) of 0.964 ± 0.061; a relative viability (0.04115 µM) of 0.962 ± 0.081. The relative viability reads like this: (0.1235 µM) 0.902 ± 0.033; (0.3704 µM) 0.928 ± 0.025; (1.111 µM) 0.905 ± 0.044; (3.333 µM) 0.894 ± 0.033; (10 µM) 0.8071 ± 0.0062.
For `C=CC(=O)N1CCC([C@@H]2CCNc3c(C(N)=O)c(-c4ccc(Oc5ccccc5)cc4)nn32)CC1` [Zanubrutinib], the relative viability runs as follows: (0.00017 µM) 0.96 ± 0.026; (0.00051 µM) 0.968 ± 0.017; (0.00152 µM) 0.944 ± 0.03; (0.00457 µM) 0.958 ± 0.013; (0.01372 µM) 0.949 ± 0.027; (0.04115 µM) 0.96 ± 0.017. The relative viability runs as follows: (0.1235 µM) 0.909 ± 0.019; (0.3704 µM) 0.893 ± 0.052; (1.111 µM) 0.827 ± 0.025; (3.333 µM) 0.771 ± 0.04; (10 µM) 0.731 ± 0.045.
In turn, `CCCS(=O)(=O)Nc1ccc(F)c(C(=O)c2c[nH]c3ncc(-c4ccc(Cl)cc4)cc23)c1F` [Vemurafenib] displayed a relative viability (0.00017 µM) of 1.04 ± 0.063; a relative viability (0.00051 µM) of 1.08 ± 0.048; a relative viability (0.00152 µM) of 1.05 ± 0.027; a relative viability (0.00457 µM) of 1.03 ± 0.029; a relative viability (0.01372 µM) of 1.06 ± 0.053; a relative viability (0.04115 µM) of 1.02 ± 0.045. Moreover, the relative viability reads like this: (0.1235 µM) 0.9867 ± 0.0019; (0.3704 µM) 0.988 ± 0.039; (1.111 µM) 1.01 ± 0.029; (3.333 µM) 0.794 ± 0.035; (10 µM) 0.532 ± 0.02.
On to `COc1cc2c(Oc3ccc4[nH]c(C)cc4c3F)ncnc2cc1OCCCN1CCCC1` [Cediranib], for which the relative viability worked out at 1.04 ± 0.034 (0.00017 µM); 1.058 ± 0.007 (0.00051 µM); 1.06 ± 0.044 (0.00152 µM); 1.06 ± 0.027 (0.00457 µM); 1.06 ± 0.031 (0.01372 µM); 1.04 ± 0.013 (0.04115 µM). Also, the relative viability runs as follows: (0.1235 µM) 1.06 ± 0.029; (0.3704 µM) 0.967 ± 0.07; (1.111 µM) 0.914 ± 0.077; (3.333 µM) 0.959 ± 0.012; (10 µM) 0.961 ± 0.01.
For the compound `CC[C@H](Nc1ncnc2[nH]cnc12)c1nc2cccc(F)c2c(=O)n1-c1ccccc1` [Idelalisib], the relative viability reads like this: (0.00017 µM) 1.06 ± 0.033; (0.00051 µM) 1.06 ± 0.039; (0.00152 µM) 1.05 ± 0.039; (0.00457 µM) 1.07 ± 0.027; (0.01372 µM) 1.07 ± 0.055; (0.04115 µM) 1.08 ± 0.033. Also, the relative viability was found to be 1.07 ± 0.04 (0.1235 µM); 1.067 ± 0.0099 (0.3704 µM); 1 ± 0.029 (1.111 µM); 0.948 ± 0.074 (3.333 µM); 0.778 ± 0.011 (10 µM).
Turning to `Cc1cc(Nc2ncnc3ccc(NC4=NC(C)(C)CO4)cc23)ccc1Oc1ccn2ncnc2c1` [Tucatinib], the relative viability reads like this: (0.00017 µM) 1.05 ± 0.062; (0.00051 µM) 1.11 ± 0.02; (0.00152 µM) 1.1 ± 0.022; (0.00457 µM) 1.09 ± 0.031; (0.01372 µM) 1.078 ± 0.0072; (0.04115 µM) 1.088 ± 0.0077. Also, the relative viability came out at 1.08 ± 0.035 (0.1235 µM); 1.059 ± 0.01 (0.3704 µM); 1.08 ± 0.046 (1.111 µM); 1.1 ± 0.044 (3.333 µM); 1.06 ± 0.026 (10 µM).
Turning to `N#CC[C@H](C1CCCC1)n1cc(-c2ncnc3[nH]ccc23)cn1` [Ruxolitinib], the relative viability was 0.96 ± 0.072 (0.00017 µM); 0.971 ± 0.05 (0.00051 µM); 0.964 ± 0.049 (0.00152 µM); 0.949 ± 0.054 (0.00457 µM); 0.939 ± 0.058 (0.01372 µM); 0.919 ± 0.061 (0.04115 µM). The relative viability is, setting by setting: (0.1235 µM) 0.915 ± 0.019; (0.3704 µM) 0.879 ± 0.02; (1.111 µM) 0.842 ± 0.015; (3.333 µM) 0.7741 ± 0.005; (10 µM) 0.614 ± 0.022.
Take `Cc1ccc(F)c(NC(=O)Nc2ccc(-c3cccc4[nH]nc(N)c34)cc2)c1` [Linifanib]: the relative viability stood at 1.03 ± 0.027 (0.00017 µM); 1.08 ± 0.024 (0.00051 µM); 1.05 ± 0.035 (0.00152 µM); 1.07 ± 0.032 (0.00457 µM); 1.03 ± 0.021 (0.01372 µM); 1.06 ± 0.043 (0.04115 µM). The relative viability (0.1235 µM) is 1.06 ± 0.019; the relative viability (0.3704 µM) was 1.08 ± 0.04; the relative viability (1.111 µM) is 1.1 ± 0.036; the relative viability (3.333 µM) came to 1.12 ± 0.015; the relative viability (10 µM) worked out at 1.12 ± 0.04.
`Cc1nc(NC(=O)N2CCC[C@H]2C(N)=O)sc1-c1ccnc(C(C)(C)C(F)(F)F)c1` [Alpelisib]: the relative viability by setting is: (0.00017 µM) 0.989 ± 0.04; (0.00051 µM) 0.929 ± 0.033; (0.00152 µM) 0.98 ± 0.021; (0.00457 µM) 0.95 ± 0.02; (0.01372 µM) 0.997 ± 0.014; (0.04115 µM) 0.959 ± 0.055. Moreover, the relative viability is, setting by setting: (0.1235 µM) 0.964 ± 0.031; (0.3704 µM) 0.927 ± 0.052; (1.111 µM) 0.845 ± 0.026; (3.333 µM) 0.725 ± 0.022; (10 µM) 0.596 ± 0.026.

For the origin of these results see the supplement of paper PMC10883282.
